The values that follow come from ChEMBL document CHEMBL1153937, “Synthesis and antiviral evaluation of thieno[3,4-d]pyrimidine C-nucleoside analogues of 2',3'-dideoxy- and 2',3'-dideoxy-2',3'-didehydro-adenosine and -inosine” (Bioorg Med Chem, 2009).

The source made the active and inactive calls. The calls are words filed in the database; no cut-off is given here.

One data set relates to Dengue virus. In words: Antiviral activity against Dengue virus at 75 uM. Type of data set: functional, organism-based.
A further data set has as its system Yellow fever virus. Kind of data set: Antiviral activity against Yellow fever virus at 75 uM. Type of data set: functional, organism-based.
Another data set has as its system West Nile virus. In words: Antiviral activity against West Nile virus at 75 uM. Type of data set: functional, organism-based.
Data set [1] deals with Human immunodeficiency virus 1. In words: Antiviral activity against HIV1 BH10 in human MT4 cells assessed as inhibition of virus-induced cytopathogenicity after 4 days by MTS method. Conditions: Human immunodeficiency virus 1, MT4, 96 h. Type of data set: functional, organism-based, Human immunodeficiency virus type 1 BH10.
Data set [2] in a line: Cytotoxicity against human MT4 cells by MTS method. Type of data set: cell-based. On the technique in general: Tetrazolium assays rely on reduction of a dye to a coloured formazan, in cell work by metabolically active cells.
The test system of a further data set is L1210. In words: Growth inhibition of mouse L1210 cells. The format is functional, cell-based.
For the next data set, the system named is CCRF S-180. Kind of data set: Growth inhibition of mouse S180 cells. Type of data set: functional, cell-based.
For the next data set, the system named is HL-60. In words: Growth inhibition of human HL60 cells. The format is functional, cell-based.

The EC50 is the concentration that produces a half-maximal response. In general, CC50 refers to the concentration giving 50% cytotoxicity. A low value points to greater toxicity to the cells. In general, IC50 refers to the concentration that gives 50% inhibition. Lower therefore signals inhibition by little substance.

With `OC[C@@H]1CC[C@H](c2scc3c(O)ncnc23)O1`, the outcome in the data set on Dengue virus, with Yellow fever virus and in the data set on West Nile virus was inactive. Further, in data set [1], the half-maximal effective concentration (EC50) was above 100 µM. Moreover, the CC50 in data set [2] was above 100 µM.

Consider `Nc1ncnc2c([C@H]3CC[C@@H](CO)O3)scc12`, for which the outcome in the data set on Dengue virus, in the data set on Yellow fever virus and in the data set with West Nile virus was inactive. Besides, in data set [1], the half-maximal effective concentration (EC50) is above 75 µM. In data set [2], this molecule had a CC50 above 75 µM.

Take `OC[C@H]1O[C@@H](c2scc3c(=S)[nH]cnc23)[C@H](O)[C@@H]1O`: the outcome in the data set with Dengue virus, in the data set with Yellow fever virus and in the data set on West Nile virus was inactive. The IC50 with L1210 was determined as 17.6 µM; in the data set on CCRF S-180, 29.1 µM; in the data set with HL-60, 8.17 µM. Further, the EC50 in data set [1] is above 2.9 µM. This molecule registered a CC50 in data set [2] of 2.9 µM.

On to `Nc1ncnc2c([C@H]3C=C[C@@H](CO)O3)scc12`, for which the result in the data set on Dengue virus, in the data set with Yellow fever virus and with West Nile virus was inactive. In addition, in data set [1], the EC50 was above 7.3 µM. For the same molecule, the cytotoxic concentration (CC50) in data set [2] came to 7.3 µM.

As to `OC[C@@H]1C=C[C@H](c2scc3c(O)ncnc23)O1`, the result in the data set on Dengue virus, in the data set on Yellow fever virus and with West Nile virus was inactive. The EC50 in data set [1] is above 100 µM. The CC50 in data set [2] is above 100 µM.

Regarding `O=c1[nH]cnc2c([C@@H]3O[C@H](CO)[C@@H](O)[C@H]3O)scc12`, the outcome in the data set on Dengue virus, with Yellow fever virus and in the data set on West Nile virus was inactive. The concentration giving a half-maximal response (EC50) in data set [1] was above 100 µM. Besides, in data set [2], the CC50 is above 100 µM.

Take `Cc1cn([C@H]2C[C@H](N=[N+]=[N-])[C@@H](CO)O2)c(=O)[nH]c1=O` [ZIDOVUDINE]: in data set [1], the EC50 was 0.009 µM. This molecule also yielded a CC50 in data set [2] of 61 µM.

For the molecule `CSc1ncnc2c([C@H]3C=C[C@@H](CO)O3)scc12`, the outcome with Dengue virus, in the data set on Yellow fever virus and with West Nile virus was inactive. The EC50 in data set [1] is above 70 µM. In data set [2], this molecule yielded a CC50 of 70 µM.
